Our source for the body weight change and quantum yield values is patent US10912767B2, “Anthracycline prodrugs and methods of making and using the same” (THE REGENTS OF THE UNIVERSITY OF COLORADO, priority 2015, dated 2021).

The structures appear in SMILES notation.

A short description of data set [1]: In vivo body weight change as indication of toxicity. Also on record: species or system nude mice. As to conditions: 4 mg/kg dox equivalent iv weekly x6; photodoxazolidine with 18-FDG ip. The method, then:
For reconstitution for intravenous injection into mice, dry photodoxazolidine R═H (23 mg) was dissolved in 785 μL of DMSO for a final concentration of 34.5 mM, labeled “Drug Stock,” and stored dark at −20° C. Shortly before injection, the Drug Stock was thawed and 20-50 μL was transferred to a new tube. To this tube, 6 volumes (relative to the Drug Stock volume) of PEG-400 and 4 volumes of propylene glycol (PG) were added and the solution thoroughly mixed by vortexing. Immediately prior to injection, 9 volumes of saline (0.9% NaCl) was added to the DMSO/PEG/PG solution of photodoxazolidine and mixed by vortexing. […] Therefore, this formulation was used as prepared. This protocol produces a final formulation of 5% DMSO, 30% PEG-400, 20% PG, 45% saline. A standard injection of 100 μL of this formulation delivers 4 mg dox equivalent/kg body weight for a mouse weighing 0.025 kg.
Luciferase-positive MDA-MB-231 cells were maintained in MEM culture medium supplemented with 10% heat inactivated fetal bovine serum and 2% penicillin/streptomycin. Prior to injection, typsinized cell populations were counted with a Z1 Coulter Particle counter, centrifuged, and resuspended in Hank's Balanced Salt Solution (HBSS) at a concentration of 4.0×10^7 cells/mL. […] Body weight and tumor growth were measured regularly. Tumor growth was measured optically from the bioluminescence signal from injection of luciferin. […]

A short description of data set [2]: Quantum yield of photocleavage, He-Cd laser 325 nm, HPLC. It is filed as physicochemical. The settings on record: 325 nm. The method, then: Initially, measurement of the quantum yield of photodoxazolidine R═H was done in a fully-absorbing solution of photoactive drug in a solution of 90% dimethylacetamide (DMA), 10% water in a 1×1 cm quartz cuvette equipped with a small magnetic stir bar. A stock of photodoxazolidine in DMA was diluted in 9:1 DMA:H2O to a final concentration of 373 μM in a final volume of 3.380 mL. […] The cuvette was placed into the path of an Omnichrome He-Cd laser (single-window power: 10.75 mW at 325 nm using a Scientech laser power meter). The solution was mixed by the stir bar, which was agitated with a magnetic stir plate placed vertically next to the cuvette. Aliquots of 20 μL were removed at times between 0 and 62 min of irradiation and those aliquots were analyzed by HPLC (method 2) for the ratio of dox to photodoxazolidine. The quantum yield was calculated from the ratio of molecules of doxorubicin (dox) formed to photons absorbed.
To allow for better comparison between the quantum yield of photocleavage of photodoxazolidine with the quantum yield for azido-PEG-photodoxazolidine, the measurement was retaken with 50% acetonitrile in water as a solvent. […] Photodoxazolidine (in DMF) was diluted with 30 mL of 50% acetonitrile to a final concentration of 104 μM. The solution was confirmed to be fully absorbing by monitoring the laser power exiting the cell throughout the course of the experiment, which never deviated from 0 mW. As above, the contents of the cell were mixed with a small magnetic stir bar. Aliquots of 50 μL were removed at various times and analyzed as described above. The calculated quantum yield in this solvent system was identical to that measured from the […] system used above.
Concentration of azido-PEG-photodoxazolidine was determined via absorbance (λ=480 nm, ε=11500 M^−1 cm^−1). A sample ([…]) was dissolved in 1 mL of ACN and transferred to a cuvette. A 12.4 mW Omnichrome HeCd was used to irradiate the solution for 30 min at 325 nm. Aliquots of 10 μL were collected at different times and analyzed by HPLC to determine the % Dox in relation to that of azido-PEG-photodoxazolidine. In calculating quantum yield: power (without cuvette)=12.4 mW, (with cuvette)=10.7 mW, incident light=11.55 mW; energy=0.462 J, 7.55×1017 photons; t=40 sec when % Dox=9.2. Experiments were performed in triplicate.
Azido-PEG-photodoxazolidine was irradiated with a 12.4 mW monochromatic laser at 325 nm for 30 min. Aliquots were collected throughout to determine the amount of azido-PEG-photodoxazolidine in relation to released doxorubicin, which was quantified by HPLC. […] The average of triplicate quantum yield experiments was 0.025. This value is in the low end of the quantum yield range, yet is beneficial because it signifies that UV must be applied for longer durations prior to release of the cytotoxic agent. This makes administration of this photo-activated prodrug safer, and its synthesis more practical.

Turning to `COc1cc(COC(=O)N2COC3C(C)OC(OC4CC(O)(C(=O)CO)Cc5c(O)c6c(c(O)c54)C(=O)c4c(OC)cccc4C6=O)CC32)c([N+](=O)[O-])cc1OC` (stereo not drawn) [Photodoxazolidine], in data set [1], the body weight change result is listed as “no significant change”. In addition, the quantum yield result in data set [2] (50% acetonitrile in water, vs first solvent system) is “identical”; in data set [2] (90% dimethylacetamide, 10% water), 0.002.
